Legend:
[1] = test system: male golden hamsters; assay: Resident/intruder paradigm of offensive aggression; type: in vivo, Syrian golden hamsters (Mesocricetus auratus); conditions: D vs L isomer, 50 μg/kg IP
Protocol: Male Syrian golden hamsters (Mesocricetus auratus) (140-150 g) obtained from Harlan Sprague-Dawley Laboratories (Indianapolis, Ind.) were housed individually in Plexiglas cages (24 cm×24 cm×20 cm), maintained on a reverse light:dark cycle (14L:10D; lights on at 19:00 hr) and provided food and water ad libitum. Animals were acclimated to the reverse light:dark cycle for at least two weeks before testing. All behavioral tests were conducted during the dark phase of the circadian cycle. All animals were acquired and cared for in accordance with the guidelines published in the Guide for the Care and Use of Laboratory Animals (National Institutes of Health Publications No. 85-23, Revised 1985).
(§1) Agonistic behavior can be classified as either offensive or defensive aggression (Blanchard and Blanchard, 1977; Adams, […]; Albert and Walsh, 1984). Offensive aggression is characterized by the aggressor initiating an attack on an opponent, while defensive aggression lacks active approach. Both types of aggression have their own unique neurobehavioral systems. The stimuli that elicit offensive and defense attack are different, as are the sequences of behaviors that accompany each agonistic response. […] Offensive aggression is easily studied using male golden hamsters tested in a resident/intruder paradigm, an established model of offensive aggression (Ferris and Potegal 1988). Placing an unfamiliar male hamster into the home cage of another male hamster elicits a well-defined sequence of agonistic behaviors from the resident that includes offensive aggression.
(§2) Hamsters are nocturnal and as such all behavioral tests were performed during the first four hrs of the dark phase under dim red illumination. The resident was scored for offensive aggression, e.g., latency to bite the intruder, the total number of bites, total contact time with the intruder and flank marking over a 10 min test period (Ferris and Potegal, 1988). Flank marking is a form of olfactory communication in which a hamsters arches its back and rubs pheromone producing flank glands against objects in the environment (Johnson, 1986).
Parametric data, i.e., latencies and contact time, were analyzed with a one-way ANOVA followed by Newman-Keuls post hoc tests. Non parametric data, i.e., number of bites and flank marks, were analyzed with Kruskal-Wallis tests followed by Mann-Whitney U tests to determine differences between groups. Two sample comparisons were analyzed with paired and unpaired t-Tests for parametric data and Wilcoxon and Mann-Whitney Tests for paired and unpaired non-parametric data, respectively.
as §1, with “by an” for “by the”, “an opponent; while,” for “an opponent, while”, “Potegal 1988) in the context of defending the home burrow.” for “Potegal 1988).”
as §2, with “Flank marking is a form of olfactory communication in which a hamsters arches its back and rubs pheromone producing flank glands against objects in the environment (Johnson, 1986).” left out

[2] = human, in vivo; cited from earlier work
[3] = test system: bacteria; conditions: cited from earlier work
[4] = test system: Male Wistar rats; assay: Elevated plus-maze (anxiolytic activity); type: in vivo, rat; conditions: 1 mM, 2 ul into lateral ventricle, 60 min
Excerpt: (§3) The elevated plus-maze was developed for the detection of anxiolytic and anxiogenic drug effects in the rat (Pellow et al., 1985). The method has been validated behaviorally, physiologically, and pharmacologically. The plus-maze consists of two open arms and two enclosed arms. […] Conversely, anxiogenic compounds like yohimbin or amphetamines reduce open arm entries and time spent in the open arms.
Male Wistar rats weighing 250-300 g were group housed in a normal 12:12 light-dark cycle light on at 0800 hr and provide food and water ad libitum. The plus-maze consisted of two open arms, 50×10 cm, and two enclosed arms 50×10×40 cm with an open roof, arranged such that the two open arms were opposite to each other. The maze was elevated to a height of 50 cm.
Eight animals were tested in the plus-maze 90 min following IP injection with 50 μg/kg Mox and saline vehicle. The order of treatments was counter balanced with at least 48 hrs between injections. At the start of the experiment the animal was place in the center of the plus maze facing the closed arm. Over a five min observation period, animals were scored for the latency to enter the closed arm, time spent in the closed arm and the number of open arm entries following the first occupation of the closed arm (FIG. 7).
Because Mox and CDP have different bioavailability profiles, e.g. brain penetrance, their CNS activity could not be compared by giving systemic injections of equimolar concentrations of each drug. Instead it was necessary to give both drugs directly into the cerebroventricular system to by pass the blood brain barrier. Animals were anesthetized with sodium pentobarbital (50 mg/kg), implanted with microinjection guide cannulae aimed at the lateral ventricle and allowed to recover for two days before testing. To groups of six animals each were tested with Mox or CDP. Each animals received a injection of drug and 0.9% NaCl vehicle on two separate days. The order of injections was counterbalanced and separated by two days. Both Mox and CDP were prepared in 0.9% NaCl at a concentration of 1 mM. All injections were given in a volume of 2 ul over 10 secs in fully conscious, restrained animals. Sixty min later animals were tested in the plus-maze for a 3 min observation period and scored for behaviors as noted previously.
as §3, with “screening” for “the detection of”
Male Wistar rats weighing 250-300 g were group housed in a normal 12:12 light-dark cycle with light on at 0800 hr and provided food and water ad libitum. The plus-maze consisted of two open arms, 50 cm long, 10 cm wide, with walls 40 cm high made of clear Plexiglas. The two closed arms had the same dimensions but included a roof. The Plexiglas for the closed arms was painted black. Each pair of arms was arranged opposite to each other to form the plus-maze. The maze was elevated to a height of 50 cm. Eighteen animals were tested in the plus-maze 90 min following the IP injection of 1.0 μg/kg CLAV, 50 or vehicle control in a volume of ca. 0.3 ml. The order of treatments was counter balanced with at least 48 hrs between injections. At the start of the experiment, the animal was placed at the end of one of the open arms. Over a five min observation period, animals were scored for the latency to enter the closed arm, time spent in the closed arm and the number of open arm entries following the first occupation of the closed arm. The study produced tables of repeated measures. The data between treatments were compared with a two-way, repeated measures ANOVA followed by Bonferroni post hoc tests. […]

[5] = test system: rats; assay: Motor activity in an open field (plus-maze animals); type: in vivo, rat; conditions: 1 mM direct injection into the brain, 30 min prior to plus-maze
Protocol: However, this depression of motor activity disappears following repeated administration of CDP over several days. […] To control for any non-specific effects of Mox and CDP on motor activity following their direct injection into the brain, animals were tested in the open field 30 min prior to testing in the plus (FIG. 18).
Immediately after each of the plus-maze tests reported above in Section II, animals were tested for general motor activity in an “open field.” Animals were placed into a large clean Plexiglas cage (48×32×40 cm) devoid of bedding. This open field was delineated into equal quadrants by tape on the underside of the cage. Animals were scored for motor activity by counting the number of quadrants traversed in 1 min.

[6] = test system: golden hamsters; assay: Seed finding model of anxiety; type: in vivo, Syrian golden hamsters (Mesocricetus auratus); conditions: dose not given
Excerpt: Clavulanic acid (CLAV) is structurally similar to the beta-lactam antibiotics. A most robust and simple bioassay for screening beta-lactams for CNS activity is the golden hamster seed finding model of anxiety. Briefly, hamsters are deprived of food overnight. The following day they are exposed to the additional stress of being taken from their home cage and placed in a novel environment for a few minutes. This manipulation stimulates the release of the stress hormone cortisol (FIG. 37). During their absence from the home cage, sunflower seeds are hidden under the bedding in one of the corners. When returned to the home cage, hamsters routinely scramble along the walls for 1-2 min before settling down, locating and eating the seeds. However, animals treated with the benzodiazepine anxiolytic chlordiazepoxide find seeds in less than 10 sec.
Male, Syrian golden hamsters (Mesocricetus auratus) (120-130 g) obtained from Harlan Sprague-Dawley Laboratories (Indianapolis, Ind.) were housed individually in Plexiglas cages (24 cm×24 cm×20 cm), maintained on a reverse light:dark cycle (14L:10D; lights on at 19:00 hr) and provided food and water ad libitum. A range of concentrations of CLAV (saline vehicle, 0.1, 1.0, 10, 100 1,000 ng/kg) were tested in six groups of hamsters (4-8/group)(FIG. 25). All tests were conducted during the dark phase of the circadian cycle under dim red illumination. Prior to testing all animals were fasted for 20-24 hrs. Ninety min after intraperitoneal (IP) injection of drug, animals were taken from their home cage and placed into a holding cage for 2 min. During their absence, six sunflower seeds were buried under the bedding in one corner of their home cage. Animals were placed back into their home cage randomly facing any one of the empty corners and timed for their latency to find the seeds in a five min observation period. Latency times were analyzed with a one-way ANOVA followed by Scheffe's post hoc tests. Assumption of equal variances was tested (Hartley's F-max=2.1 p>0.05)
It was hypothesized that CLAV functioned as an anxiolytic in the seed finding assay by blocking NAALADase activity in the brain. If this notion were true then it would be predicted that drugs known to block NAALADase should also enhance seed finding. To this end, animals were treated with N-acetyl-beta-aspartyl-glutamic acid (beta-NAAG), a competitive inhibitor of NAALADase (Serval et al., 1992) and tested in the seed finding model of anxiety. The study was similar to that outlined in Section I with one notable exception. […] Beta-NAAG (FW 304) was given in a dose of 3 ng in a volume of 1 μl saline ICV. The average adult hamster brain weights ca. 1.2 g of which 22% is extracellular fluid. The estimated beta-NAAG concentration was 11 ng/ml or 36 nM.
Two groups of six animals each were fasted overnight as previously described and tested the following day. One group was treated with beta-NAAG and the other saline vehicle and one hr later timed for latency to find the hidden sunflower seeds. A Student t-test for unpaired data was used for statistical comparisons.

SMILES	contact time [1]	flank marking [1]	isomer affecting offensive aggressive behavior [1]	bite latency ([1]; 90 min)	number of bites ([1]; 90 min)	unbound fraction to plasma protein vs L isomer [2]	antibacterial activity [3]	time spent in the closed arm (dark) [4]	latency to enter the closed arm ([4]; 3 min observation)	general motor activity in the open field [5]	time to find seeds [6]
CO[C@@]1(NC(=O)C(C(=O)O)c2ccc(O)cc2)C(=O)N2C(C(=O)O)=C(CSc3nnnn3C)CO[C@@H]21 (some centres unmarked) [D Mox]	no significant difference	no significant difference	active isomer	significantly increased	reduced	greater unbound fraction	has antibacterial activity				
CNC1=Nc2ccc(Cl)cc2C(c2ccccc2)=[N+]([O-])C1 [CDP, Chlordiazepoxide]								no effect	no effect	no significant effect	less than 10 sec

Source: US7842683B2, “Neurotherapeutic compositions and method” (Revaax Pharmaceuticals, LLC, priority 1999, dated 2010)
